Experimental data published in patent publication US12410171B2, “Tropomyosin receptor kinase (TRK) degradation compounds and methods of use” (Cullgen (Shanghai), Inc., priority 2020, dated 2025).

test system: KM12 cells; assay: KM12 cell viability (CellTiter-Glo); format: cell-based; settings: Homo sapiens, 72 h; KM12 cell viability, 11-point 3-fold serial dilution, 3 days, CellTiter-Glo; read-out: IC50
Experimental: KM12 or H358 cells were treated with 1000 nM CPD-053 following an 8-point 3-fold serial dilution for 3 days.
KM12 cells seeded in 96-well plates were treated with heterobifunctional compounds following a 11-point 3-fold serial dilution for 3 days.
KM12, H358, HEL, SU-DHL-1 and other cells were cultured at 37° C. with 5% CO2 in RPMI 1640 Medium supplemented with 10% fetal bovine serum. Cells were authenticated using the short tandem repeat (STR) assays. Mycoplasma test results were negative. Stable cell lines were established by lentivirus transduction, selected and maintained in medium containing 1 μg/mL puromycin (Beyotime Biotechnology).
Cells were seeded at a density of 5000 cells per well in 96-well assay plates and treated with test compounds following a 12-point 2-fold serial dilution or a 8-point 3-fold dilution, or 11-point 3-fold serial dilution. Three days later, cell viability was determined using the CellTiter-Glo assay kit (Promega) according to the manufacturer's instructions. The dose-response curves were determined and IC50 values were calculated using the GraphPad Prism software following a nonlinear regression (least squares fit) method.

Which IC50 does the source give for `COc1ccc(COc2ccc(Cn3c(N)nc4cc(-c5cnn(CC(=O)NCCOCCOCCC(=O)N[C@H](C(=O)N6C[C@H](O)C[C@H]6C(=O)NCc6ccc(-c7scnc7C)cc6)C(C)(C)C)c5)cnc43)cc2OC)cc1` [CPD-513, (2S,4R)-1-((S)-1-(4-(2-amino-3-(3-methoxy-4-((4-methoxybenzyl)oxy)benzyl)-3H-imidazo[4,5-b]pyridin-6-yl)-1H-pyrazol-1-yl)-14-(tert-butyl)-2,12-dioxo-6,9-dioxa-3,13-diazapentadecan-15-oyl)-4-hydroxy-N-(4-(4-methylthiazol-5-yl)benzyl)pyrrolidine-2-carboxamide] here?
The IC50 was 261 nM.

How did the IC50 turn out when `COc1ccc(COc2ccc(Cn3c(N)nc4cc(-c5cnn(CC(=O)NCCOCCOCCOCCC(=O)N[C@H](C(=O)N6C[C@H](O)C[C@H]6C(=O)NCc6ccc(-c7scnc7C)cc6)C(C)(C)C)c5)cnc43)cc2OC)cc1` [CPD-514, (2S,4R)-1-((S)-1-(4-(2-amino-3-(3-methoxy-4-((4-methoxybenzyl)oxy)benzyl)-3H-imidazo[4,5-b]pyridin-6-yl)-1H-pyrazol-1-yl)-17-(tert-butyl)-2,15-dioxo-6,9,12-trioxa-3,16-diazaoctadecan-18-oyl)-4-hydroxy-N-(4-(4-methylthiazol-5-yl)benzyl)pyrrolidine-2-carboxamide] was run?
The IC50 was 174 nM.

Which IC50 does the source give for `Cc1ncsc1-c1ccc(CNC(=O)[C@@H]2C[C@@H](O)CN2C(=O)[C@@H](NC(=O)CCOCCOCCOCCOCCC(=O)N2CCC(Nc3cccc(C(=O)Nc4cnn5ccc(N6CCC[C@@H]6c6cc(F)ccc6F)nc45)n3)CC2)C(C)(C)C)cc1` [CPD-468, N-(5-((R)-2-(2,5-difluorophenyl)pyrrolidin-1-yl)pyrazolo[1,5-a]pyrimidin-3-yl)-6-((1-((S)-18-((2S,4R)-4-hydroxy-2-((4-(4-methylthiazol-5-yl)benzyl)carbamoyl)pyrrolidine-1-carbonyl)-19,19-dimethyl-16-oxo-4,7,10,13-tetraoxa-17-azaicosanoyl)piperidin-4-yl)amino)picolinamide] here?
The IC50 was over 1000 nM.

How did the IC50 turn out when `COc1ccc(COc2ccc(Cn3c(N)nc4cc(-c5cnn(CC(=O)NCCOCCOCCNc6cccc7c6C(=O)N(C6CCC(=O)NC6=O)C7=O)c5)cnc43)cc2OC)cc1` (centres unmarked) [CPD-503, 2-(4-(2-amino-3-(3-methoxy-4-((4-methoxybenzyl)oxy)benzyl)-3H-imidazo[4,5-b]pyridin-6-yl)-1H-pyrazol-1-yl)-N-(2-(2-(2-((2-(2,6-dioxopiperidin-3-yl)-1,3-dioxoisoindolin-4-yl)amino)ethoxy)ethoxy)ethyl)acetamide] was run?
The IC50 was 504 nM.

With `COc1ccc(COc2ccc(Cn3c(N)nc4cc(-c5cnn(CC(=O)NCCOCCOCCOCCOCCOCCNc6cccc7c6C(=O)N(C6CCC(=O)NC6=O)C7=O)c5)cnc43)cc2OC)cc1` (centres unmarked) [CPD-506, 2-(4-(2-amino-3-(3-methoxy-4-((4-methoxybenzyl)oxy)benzyl)-3H-imidazo[4,5-b]pyridin-6-yl)-1H-pyrazol-1-yl)-N-(17-((2-(2,6-dioxopiperidin-3-yl)-1,3-dioxoisoindolin-4-yl)amino)-3,6,9,12,15-pentaoxaheptadecyl)acetamide] as the compound, how does the IC50 read?
Its IC50 is 204 nM.

`Cc1ncsc1-c1ccc(CNC(=O)[C@@H]2C[C@@H](O)CN2C(=O)[C@@H](NC(=O)CCOCCOCCOCCC(=O)N2CCC(Nc3cccc(C(=O)Nc4cnn5ccc(N6CCC[C@@H]6c6cc(F)ccc6F)nc45)n3)CC2)C(C)(C)C)cc1` [CPD-467, N-(5-((R)-2-(2,5-difluorophenyl)pyrrolidin-1-yl)pyrazolo[1,5-a]pyrimidin-3-yl)-6-((1-((S)-15-((2S,4R)-4-hydroxy-2-((4-(4-methylthiazol-5-yl)benzyl)carbamoyl)pyrrolidine-1-carbonyl)-16,16-dimethyl-13-oxo-4,7,10-trioxa-14-azaheptadecanoyl)piperidin-4-yl)amino)picolinamide] was tested. Which IC50 did it give?
Its IC50 is 343 nM.

Which IC50 does the source give for `Cc1ncsc1-c1ccc(CNC(=O)[C@@H]2C[C@@H](O)CN2C(=O)[C@@H](NC(=O)CCCCCCCCC(=O)N2CCC(Nc3cccc(C(=O)Nc4cnn5ccc(N6CCC[C@@H]6c6cc(F)ccc6F)nc45)n3)CC2)C(C)(C)C)cc1` [CPD-464, N-(5-((R)-2-(2,5-difluorophenyl)pyrrolidin-1-yl)pyrazolo[1,5-a]pyrimidin-3-yl)-6-((1-(10-(((S)-1-((2S,4R)-4-hydroxy-2-((4-(4-methylthiazol-5-yl)benzyl)carbamoyl)pyrrolidin-1-yl)-3,3-dimethyl-1-oxobutan-2-yl)amino)-10-oxodecanoyl)piperidin-4-yl)amino)picolinamide] here?
The IC50 was 87 nM.

For `COc1ccc(COc2ccc(Cn3c(N)nc4cc(-c5cnn(CC(=O)NCC(=O)N[C@H](C(=O)N6C[C@H](O)C[C@H]6C(=O)NCc6ccc(-c7scnc7C)cc6)C(C)(C)C)c5)cnc43)cc2OC)cc1` [CPD-507], which IC50 is on record?
The IC50 was 1520 nM.

How did the IC50 turn out when `NC(=O)C1CCN(c2cc(CN3CCN(C(=O)CCOCCOCCNc4cccc5c4C(=O)N(C4CCC(=O)NC4=O)C5=O)CC3)ccc2NC(=O)c2coc(N3CCOCC3)n2)CC1` (centres unmarked) [CPD-486, N-(2-(4-carbamoylpiperidin-1-yl)-4-((4-(3-(2-(2-((2-(2,6-dioxopiperidin-3-yl)-1,3-dioxoisoindolin-4-yl)amino)ethoxy)ethoxy)propanoyl)piperazin-1-yl)methyl)phenyl)-2-morpholinooxazole-4-carboxamide] was run?
The IC50 was 230 nM.

How did the IC50 turn out when `COc1ccc(COc2ccc(Cn3c(N)nc4cc(-c5cnn(CC(=O)NCCOCCOCCOCCOCCNc6cccc7c6C(=O)N(C6CCC(=O)NC6=O)C7=O)c5)cnc43)cc2OC)cc1` (centres unmarked) [CPD-505, 2-(4-(2-amino-3-(3-methoxy-4-((4-methoxybenzyl)oxy)benzyl)-3H-imidazo[4,5-b]pyridin-6-yl)-1H-pyrazol-1-yl)-N-(14-((2-(2,6-dioxopiperidin-3-yl)-1,3-dioxoisoindolin-4-yl)amino)-3,6,9,12-tetraoxatetradecyl)acetamide] was run?
The IC50 was 195 nM.

`Cc1ncsc1-c1ccc(CNC(=O)[C@@H]2C[C@@H](O)CN2C(=O)[C@@H](NC(=O)CCOCCC(=O)N2CCC(Nc3cccc(C(=O)Nc4cnn5ccc(N6CCC[C@@H]6c6cc(F)ccc6F)nc45)n3)CC2)C(C)(C)C)cc1` [CPD-465, N-(5-((R)-2-(2,5-difluorophenyl)pyrrolidin-1-yl)pyrazolo[1,5-a]pyrimidin-3-yl)-6-((1-(3-(3-(((S)-1-((2S,4R)-4-hydroxy-2-((4-(4-methylthiazol-5-yl)benzyl)carbamoyl)pyrrolidin-1-yl)-3,3-dimethyl-1-oxobutan-2-yl)amino)-3-oxopropoxy)propanoyl)piperidin-4-yl)amino)picolinamide] was tested. Which IC50 did it give?
The IC50 was 2020 nM.

`NC(=O)C1CCN(c2cc(CN3CCN(C(=O)CCOCCOCCOCCOCCOCCNc4cccc5c4C(=O)N(C4CCC(=O)NC4=O)C5=O)CC3)ccc2NC(=O)c2coc(N3CCOCC3)n2)CC1` (centres unmarked) [CPD-489, N-(2-(4-carbamoylpiperidin-1-yl)-4-((4-(1-((2-(2,6-dioxopiperidin-3-yl)-1,3-dioxoisoindolin-4-yl)amino)-3,6,9,12,15-pentaoxaoctadecan-18-oyl)piperazin-1-yl)methyl)phenyl)-2-morpholinooxazole-4-carboxamide] was tested. Which IC50 did it give?
Its IC50 is 141 nM.

same assay, conditions: Homo sapiens, 72 h; KM12 cell viability, CellTiter-Glo, three days treatment; read-out: IC50

`Cn1c(=O)n(C2CCC(=O)NC2=O)c2ccc(OCCCN3CCN(c4ccc(C(=O)Nc5n[nH]c6ccc(Cc7cc(F)cc(F)c7)cc56)c(NC5CCOCC5)c4)CC3)cc21` (centres unmarked) [TR-313, N-(5-(3,5-Difluorobenzyl)-1H-indazol-3-yl)-4-(4-(3-((1-(2,6-dioxopiperidin-3-yl)-3-methyl-2-oxo-2,3-dihydro-1H-benzo[d]imidazol-5-yl)oxy)propyl)piperazin-1-yl)-2-((tetrahydro-2/1-pyran-4-yl)amino)benzamide] was tested. Which IC50 did it give?
The IC50 was 13.8 nM.

`Cn1c(=O)n(C2CCC(=O)NC2=O)c2ccc(OCCCN3CCN(c4cccc(-c5cnc6ccc(N7CCC[C@@H]7c7cccc(F)c7)nn56)n4)CC3)cc21` (stereo partly drawn) [TR-257, 3-(5-(3-(4-(6-(6-((R)-2-(3-Fluorophenyl)pyrrolidin-1-yl)imidazo[1,2-b]pyridazin-3-yl)pyridin-2-yl)piperazin-1-yl)propoxy)-3-methyl-2-oxo-2,3-dihydro-1H-benzo[d]imidazol-1-yl)piperidine-2,6-dione] was tested. Which IC50 did it give?
The IC50 was over 500 nM.

How did the IC50 turn out when `Cc1ncsc1-c1ccc(CNC(=O)[C@@H]2CC(O)CN2C(=O)[C@@H](NC(=O)CCOCCOCCOCCOCCOCCC(=O)N2CCN(c3ccc(C(=O)Nc4n[nH]c5ccc(Cc6cc(F)cc(F)c6)cc45)c(NC4CCOCC4)c3)CC2)C(C)(C)C)cc1` (stereo partly drawn) [CPD-043, (28,4R)-1-((S)-2-(tert-butyl)-22-(4-(4-((5-(3,5-Difluorobenzyl)-1H-indazol-3-yl)carbamoyl)-3-((tetrahydro-2H-pyran-4-yl)amino)phenyl)piperazin-1-yl)-4,22-dioxo-7,10,13,16,19-pentaoxa-3-azadocosanoyl)-4-hydroxy-N-(4-(4-methylthiazol-5-yl)benzyl)pyrrolidine-2-carboxamide] was run?
Its IC50 is over 1000 nM.

For `O=C1CCC(N2C(=O)c3ccc(N4CC5(CN(CC6CCN(c7ccc(C(=O)Nc8n[nH]c9ccc(Cc%10cc(F)cc(F)c%10)cc89)c(NC8CCOCC8)c7)CC6)C5)C4)cc3C2=O)C(=O)N1` (centres unmarked) [TR-329], which IC50 is on record?
The IC50 was over 500 nM.

How did the IC50 turn out when `Cc1nc2cccc(N3CC(CCN4CCN(c5cccc(-c6cnc7ccc(N8CCC[C@@H]8c8cccc(F)c8)nn67)n5)CC4)C3)c2c(=O)n1C1CCC(=O)NC1=O` (stereo partly drawn) [TR-307, 3-(5˜ (3-(2-(4-(6-(6-((R)-2-(3-Fluorophenyl)pyrrolidin-1-yl)imidazo[1,2-b]pyridazin-3-yl)pyridin-2-yl)piperazin-1-yl)ethyl)azetidin-1-yl)-2-methyl-4-oxoquinazolin-3 (4H)-yl)piperidine-2,6-dione] was run?
The IC50 was 12.7 nM.
